# In patent US20160002297A1, “THERAPEUTIC AGENTS” (NATIONAL UNIVERSITY OF SINGAPORE, priority 2013, published 2016):
# Positions of bridges follow the written chain, without caps; N, C: chain ends. Residues, ends and D or L forms follow the SMILES beside them.
# What was measured:
# [1] = system: HUVECs; assay: Tube formation assay on Matrigel; type: cell-based, human
# Method: HUVECs (1×10^4) were pre-treated with peptides of various concentrations for 30 min before being plated onto the polymerized Matrigel (Millipore, USA) in 15-well μ-slide (Ibidi, Germany). After 4-6 h, capillary network was documented using Zeiss Axiovert200 inverted microscope (Maple Grove, Minn., USA). Tube length was quantified by measuring the length of branches in representative fields using ImageJ software. Plots represented the mean of 3 wells of tubular length in 15-well μ-slide (t SEM).
# [2] = system: ECs; assay: Cell attachment (EC adhesion) assay; type: cell-based; details: peptide coated on plastic surface
# Method: 96-well plates were coated with 50 μl of 1 μM ISM at 4° C. overnight. Nonspecific binding sites were blocked with 1% BSA for 2 h at 37° C. ECs were harvested and incubated in CSC basal medium containing 4 μg/ml neutralizing antibodies or control IgG for 30 min. 2[…]104 cells were plated to each well and allowed to attach for 60 min at 37° C. Attached cells were fixed by 10% formalin and stained with 0.2% crystal violet. Absorbed crystal violet was extracted by 10% acetic acid and quantified by measuring the absorbance of eluted dye at 595 nm with a microplate reader.
# [3] = system: B16F10 melanoma; assay: Mouse tumorigenesis: subcutaneous B16F10 melanoma, intravenous treatment from day 0; type: in vivo
# Method: FIG. 4 Recombinant ISM and ISM derived cRKD peptide inhibit B16F10 tumour growth in vivo. A. Tumour growth curve in mice. X-axis represents the days after 5×10^5 tumour cell inoculation. Groups consisted of control mice receiving no treatment, recombinant ISM, cRKD peptide and its control-cyclic RAA peptide, given in six doses of 250 μg/mouse through tail vein injection on days 0, 2, 4, 6, 8, and 10 (5 mice in each group, each mice with one tumour). **: p<0.01,*: p<0.05, n=5. B. Tumour weight at the end of the experiment (14 days after tumour cell inoculation). C. Recombinant ISM and cRKD peptide inhibits B16F10 tumour growth. […] Paraffin sections of tumors from mice groups treated by control, ISM, cRAA and cRKD peptides were probed for microvessel density, tumor cell proliferation and apoptosis through immunofluoresence staining using anti-CD31 (A), anti-PCNA (B) and TUNEL staining (C) respectively. Representative photos are shown. (D) Quantification of microvessel density. Microvessel density is the number of microvessels per microscopic field. (E) Quantification of cell proliferation in tumor sample. Cell proliferation is presented as the percentage of PCNA positive cells out of the total number of cells (DAPI positive cells) in the microscopic field. (F) Quantification of apoptosis in tumor. Apoptosis is quantified as the percentage of TUNEL positive cells out of the total number of cells (DAPI positive cells) in the microscopic field. Plots represent the mean of 3 fields per section, 3 sections per tumor and 2 tumors per group (±SEM). ** P≦0.01, * P≦0.05; Adult 8-week-old female C57BL/6J mice were used in this study. Animal care and experimentation was carried out under the institutional guidelines issued by the local institutional animal care and use committee (IACUC; protocol 066/12). 5×10^5 B16F10 cells in 0.1 ml PBS were injected subcutaneously into the dorsal left flank of the mouse. Twenty mice were assigned into 4 different groups consisted of control mice receiving no treatment, recombinant ISM, cyclic RKD peptide and its peptide control-cyclic RAA peptide, given in six doses of 250 μg through tail vein injection on days 0, 2, 4, 6, 8, and 10 (5 mice in each group, each mice with one tumor). Health status of the mice was monitored over two weeks and visible tumor size were measured daily by calipers after 8 days until the end point (day 14). Tumor volume was calculated using the following formula: 0.52×length×(width)^2 mm^3, where the largest dimension of the tumor is considered as the length and the width is the perpendicular dimension. On day 14, mice were sacrificed, and their dorsal flank was opened and photographed to exam the vascularization. Then tumors were excised and weighed followed by either fixing in 4% paraformaldehyde for sectioning or snap-freezing in liquid nitrogen for further analysis. Paraffin-embedded tissue sections of 5 μm were deparaffinized by heating at 60° C. for 7 minutes before deparaffinizing in histoclear followed by the rehydration in graded series of alcohol (100%, 90%, 80%, and 70% ethanol in ddH2O) and finally in PBS for 5 minutes. Antigen retrieval was done in a bench-top 2100-Retriever according to the protocol of the manufacturer (Electron Microscopy Sciences, Hatfield, Pa.). The sections were blocked with 3% bovine serum albumin (BSA) in a humidified chamber for 1 hour at room temperature followed by overnight incubation with the anti-CD31 (Santa Cruz Biotechnology, Santa Cruz, Calif.), anti-PCNA antibody (Santa Cruz Biotechnology), anti-GRP78 antibody (Santa Cruz Biotechnology), or anti-His tag antibody (Santa Cruz Biotechnology) at 4° C. The following day, unbound antibody was washed with 1×PBS containing 0.1% Tween-20 (1×PBST) and incubated with the corresponding Alexafluor 568 secondary antibodies (Life Technologies) for 1.5 hours at 37° C. Sections were rinsed again and incubated for 10 minutes with DAPI at 1 μg/mL to visualize the DNA in the cell nucleus. […]
# [4] = system: 4T1 breast carcinoma; assay: Subcutaneous 4T1 breast carcinoma growth in mice, intravenous treatment; type: in vivo, mouse
# Method: FIG. 13 cRKD peptide inhibits subcutaneous 4T1 breast carcinoma growth in mice when delivered intravenously. (a) 4T1 tumor growth curve in mice. X-axis represents the days after inoculation of 1 million tumor cells. Groups consisted of mice receiving 250 μg cRAA peptide or cRKD peptide through tail vein injection every other day from day 0 (date of inoculation) to 22. N=10. (b) Tumor weight at the end of the experiment (day 22). (c) Dissected tumors at the end of experiment. […] Paraffin sections of 4T1 tumors were probed for microvascular density (MVD), tumor cell proliferation and apoptosis through IF using anti-CD31, anti-PCNA and TUNEL staining respectively. (f) Quantification of MVD, cell proliferation and apoptosis. Plots represent the mean of 3 fields per section, 3 sections per tumor and 2 tumors per group. **P<0.01. Error bars denote SEM. […] Double immunofluorescence staining using anti-CD31 (red) and TUNEL (green) is shown. Nuclei were counter stained by DAPI (blue). Representative photos are shown. Apoptotic EC is indicated by white arrow.
smiles,measurement,setting,value
"N=C(N)NCCC[C@@H]1NC(=O)[C@@H](N)CSSC[C@@H](C(=O)O)NC(=O)[C@H](CC(=O)O)NC(=O)[C@H](CCCCN)NC1=O [cRKD, Cyclic CRKDC peptide] (H-CRKDC-OH; disulfide 1-5; N-terminus and C-terminus assumed)",anti-angiogenic activity at 1 μM,[1]; 1 μM peptide,inhibited angiogenesis with similar potency
same,inhibition of EC tube-like structure formation on Matrigel,[1]; dose-dependence,does-dependently inhibited EC tube-like structure formation
same,EC attachment and adhesion,[2],mediated EC attachment and adhesion
same,tumor growth,"[3]; 250 μg/mouse intravenous every 2 days, days 0-10, subcutaneous B16F10",significantly suppressed tumor growth
same,vascularization (blood vessels supplying the tumor),"[3]; 250 μg/mouse intravenous, day 14",obviously reduced
same,"tumor angiogenesis, tumor cell proliferation and tumor cell apoptosis",[3]; immunofluorescence of tumor sections,"suppress tumor angiogenesis, tumor cell proliferation and induce tumor cell apoptosis"
same,suppression of subcutaneous mouse melanoma growth,[3]; intravenous injection,75%
same,increase of apoptosis in the tumor tissue (TUNEL),[3]; quantitation of tumor sections,more than 3 fold
same,suppression of tumor angiogenesis (tumor vessel density),[3]; quantitation of tumor sections,more than 3 fold
same,suppression of tumor cell proliferation (PCNA),[3]; quantitation of tumor sections,more than 2 fold
same,apoptosis of tumor cells and tumor ECs (CD31/TUNEL double staining),"[3]; tumor sections, compared to controls",both tumor cells as well as tumor ECs became apoptotic
same,tumor vessel density (anti-CD31 immunofluorescence),[3]; tumor tissue sections,obvious reduction of tumor vessel density
same,4T1 tumor growth,"[4]; 250 μg tail vein every other day, day 0 to 22, vs cRAA",suppressed subcutaneous 4T1 breast cancer growth
same,apoptosis of cancer cells and cancer ECs in 4T1 breast carcinoma,[4]; CD31/TUNEL double staining,induces apoptosis of both cancer cells and cancer ECs
same,"tumor angiogenesis, proliferation and apoptosis in 4T1 tumor","[4]; anti-CD31, anti-PCNA and TUNEL staining","suppressed tumor angiogenesis, proliferation and induced apoptosis"
same,vascularization of 4T1 tumors,[4]; compared to control,reduced vascularization
same,suppression of breast cancer growth,[4]; intravenous injection,75%
